The test system of data set [1] is Acinetobacter baumannii. Description: Antimicrobial activity against Acinetobacter baumannii DSM 30007 up to 100 uM after 18 hrs by serial dilution method. In kind it is functional, organism-based.
The test system of data set [2] is MCF7. Nature of the data set: Antiproliferative activity against human MCF7 cells after 5 days by WST-1 assay. In kind it is functional, cell-based. To be noted: MCF7, 120 h. (In general: Tetrazolium dyes change colour on reduction, which living cells bring about.)
Data set [3] concerns KB 3-1. Nature of the data set: Antiproliferative activity against human KB-3-1 cells after 5 days by WST-1 assay. It counts as functional, cell-based. To be noted: KB 3-1, 120 h.
Data set [4] has as its system Candida albicans. Description: Antimicrobial activity against Candida albicans up to 100 uM after 18 hrs by serial dilution method. In kind it is functional, organism-based.
The test system of data set [5] is Staphylococcus aureus. Nature of the data set: Antimicrobial activity against methicillin-resistant Staphylococcus aureus isolate RKI 11-02670 up to 100 uM after 18 hrs by serial dilution method. In kind it is functional, organism-based.
The subject of data set [6] is Escherichia coli. Nature of the data set: Antimicrobial activity against Escherichia coli DSM 1116 up to 100 uM after 18 hrs by serial dilution method. In kind it is functional, organism-based.
Data set [7] relates to Staphylococcus aureus. Description: Antimicrobial activity against methicillin-resistant Staphylococcus aureus ICB 25701 up to 100 uM after 18 hrs by serial dilution method. It counts as functional, organism-based.
Data set [8] concerns Enterococcus faecium. Description: Antimicrobial activity against Enterococcus faecium DSM 20477 up to 100 uM after 18 hrs by serial dilution method. It counts as functional, organism-based.
Data set [9] relates to Klebsiella pneumoniae. Description: Antimicrobial activity against Klebsiella pneumoniae DSM 11678 up to 100 uM after 18 hrs by serial dilution method. In kind it is functional, organism-based.
For data set [10], the system named is Staphylococcus aureus. Nature of the data set: Antimicrobial activity against methicillin-resistant Staphylococcus aureus up to 100 uM after 18 hrs by serial dilution method. It counts as functional, organism-based.
Data set [11] relates to Staphylococcus aureus. Description: Antimicrobial activity against methicillin-resistant Staphylococcus aureus DSM 11822 up to 100 uM after 18 hrs by serial dilution method. It counts as functional, organism-based.
The subject of data set [12] is L929. Nature of the data set: Antiproliferative activity against mouse L929 cells after 5 days by WST-1 assay. To be noted: L929, 120 h. It counts as ADME, cell-based.
Data set [13] concerns Pseudomonas aeruginosa. Nature of the data set: Antimicrobial activity against Pseudomonas aeruginosa PA7 DSM 24068 up to 100 uM after 18 hrs by serial dilution method. In kind it is functional, organism-based.
Data set [14] in a line: Antiproliferative activity against human FS4-LTM cells after 24 hrs by WST-1 assay. In kind it is ADME, cell-based.
In data set [15] the test system is Staphylococcus aureus. Nature of the data set: Antimicrobial activity against methicillin-resistant Staphylococcus aureus isolate RKI 11-02670 after 18 hrs by serial dilution method. It counts as functional, organism-based. As to conditions: isolate RKI 11-02670, 18 h.
Data set [16] has as its system Staphylococcus aureus. Nature of the data set: Growth promoting activity against methicillin-resistant Staphylococcus aureus at 50 uM after 18 hrs by serial dilution method. As to conditions: in vivo. In kind it is organism-based.

The values that follow come from ChEMBL document CHEMBL4130458, “Oxidation of the Meroterpenoid (-)-Terreumol C from the Mushroom Tricholoma terreum: Discovery of Cytotoxic Analogues” (J Nat Prod, 2017).

The pIC50 is −log10 of the IC50, conventionally taken in molar units. Lower therefore signals a high IC50. The pEC50 is the negative decadic logarithm of the EC50, by convention in mol/L. A high value points to a small EC50. One may read the MIC as the least concentration at which growth counts as inhibited. Higher therefore signals a less susceptible organism.

Each structure is given as a SMILES string. pEC50, pIC50: −log10 of the molar value. In brackets after ≈: the same amount, converted by molar mass. Activity calls are given as the source filed them. The calls are words filed in the database; no cut-off is given here. A value given as a limit tells only on which side of the number the result lay.

With `COc1cc(O)c2c(c1O)[C@@H](O)/C(C)=C\CC[C@@]1(C)O[C@@H]1C2=O`, the result in data set [1], in data set [4], in data set [5], in data set [6], in [7] and in data set [8] was inactive. The result in data set [9], in [10], in data set [11] and in [13] was inactive. Moreover, the pIC50 was 5.21 in [2], 5.39 in data set [3], 5.40 in [12] and 4.54 in data set [14].
On to `COc1cc(O)c2c(c1O)C/C(CBr)=C\CC[C@@]1(C)O[C@@H]1C2=O`, for which the pIC50 in [2] was 4.49; in [3], 4.47; in data set [12], 5.00; in data set [14], 4.54. Besides, the negative logarithm of the EC50 (pEC50) in data set [15] was 4.66. In addition, it took 13 µg/mL (≈ 33.9 µM) to inhibit growth in [15] (MIC).
For `COC1=CC(=O)C2=C(C[C@]3(C)O[C@@H]3CC[C@@]3(C)O[C@@H]3C2=O)C1=O`, the result in data set [1], in data set [4], in data set [5], in data set [6], in [7] and in [8] was inactive. The result in data set [9], in data set [10], in data set [11] and in data set [13] was inactive. Also, the negative-log IC50 (pIC50) in data set [2] was 4.62; in data set [3], 4.70; in data set [12] it was 4.74; in [14], 4.51.
As to `COc1cc(O)c2c(c1O)C/C(CO)=C\CC[C@@]1(C)O[C@@H]1C2=O`, the pIC50 is 4.37 in data set [2], 4.23 in [3], 4.40 in [12] and 4.38 in data set [14]. The pEC50 in [15] is 4.30.
With `COc1cc(O)c2c(c1O)C[C@]1(C)O[C@@H]1CC[C@@]1(C)O[C@@H]1C2=O`, the outcome in data set [1], in [4], in data set [5], in [6], in data set [7] and in data set [8] was inactive. Moreover, the result in [9], in data set [10], in data set [11] and in data set [13] was inactive. In data set [16], this compound came in with an Activity of more than 25%. Moreover, the pIC50 in [2] was 4.77; in data set [3], 5.05; in data set [12], 5.00; in data set [14], 4.54.
Regarding `COc1cc(O)c2c(c1O)C/C(C)=C\CC[C@@]1(C)O[C@@H]1C2=O`, the outcome in data set [1], in data set [4], in data set [5], in data set [6], in data set [7] and in [8] was inactive. Moreover, the outcome in data set [9], in [10], in [11] and in [13] was inactive. In addition, the Activity in [16] was more than 25%. Also, the pIC50 in data set [2] is 4.82; in [3] it was 5.00; in data set [12], 5.01; in [14], 4.55.
On to `COc1cc(O)c2c(c1O)C/C(C(OC(C)=O)OC(C)=O)=C\CC[C@@]1(C)O[C@@H]1C2=O`, for which the pIC50 in data set [2] is 5.25; in [3] it was 5.25; in [12] it was 5.57; in data set [14], 5.60. In addition, the pEC50 in [15] was 4.27.
As to `COc1cc(O)c2c(c1O)C[C@]1(C)O[C@@](C)(CC[C@H]1O)[C@H](O)C2=O`, the result in data set [1], in data set [4], in [5], in [6], in data set [7] and in data set [8] was inactive. Besides, the result in data set [9], in [10], in data set [11] and in [13] was inactive. Besides, the pIC50 is 4.00 in [2], 4.00 in [3], less than 4.00 in data set [12] and less than 4.00 in [14].
Take `C=C1Cc2c(O)c(OC)cc(O)c2C(=O)[C@H]2O[C@]2(C)CC[C@H]1Br`: the result in [1], in data set [4], in [5], in [6], in data set [7] and in data set [8] was inactive. In addition, the result in data set [9], in [10], in data set [11] and in data set [13] was inactive. Besides, the pIC50 in data set [2] was 4.96; in [3], 5.35; in [12] it was 5.60; in [14], 4.85.
Take `COC1=CC(=O)C2=C(C/C(C)=C\CC[C@@]3(C)O[C@@H]3C2=O)C1=O`: the pIC50 in data set [2] was 4.57; in [3] it was 4.85; in data set [12], 4.89; in data set [14], 4.55. In data set [15], this compound gave a pEC50 of 4.19.
